Experimental data reported in article PMC9331150 (ACS Medicinal Chemistry Letters, 2022).

Key:
[1] = biological target: HCoV 229E 3CL^pro (Human coronavirus 229E, UniProt P0C6U2); experiment: biochemical; type: biochemical
[2] = system: HCoV 229E; type: cell-based
[3] = system: rhinovirus infection; settings: cited from earlier work
[4] = biological target: SARS-CoV-2 3CL^pro (Severe acute respiratory syndrome coronavirus 2, UniProt P0DTD1); type: biochemical
[5] = system: SARS-CoV-2; settings: read-out: EC50 against SARS-CoV-2; human bronchial epithelial cells; cited from earlier work

Sequence of HCoV 229E 3CL^pro (P0C6U2 2966-3267): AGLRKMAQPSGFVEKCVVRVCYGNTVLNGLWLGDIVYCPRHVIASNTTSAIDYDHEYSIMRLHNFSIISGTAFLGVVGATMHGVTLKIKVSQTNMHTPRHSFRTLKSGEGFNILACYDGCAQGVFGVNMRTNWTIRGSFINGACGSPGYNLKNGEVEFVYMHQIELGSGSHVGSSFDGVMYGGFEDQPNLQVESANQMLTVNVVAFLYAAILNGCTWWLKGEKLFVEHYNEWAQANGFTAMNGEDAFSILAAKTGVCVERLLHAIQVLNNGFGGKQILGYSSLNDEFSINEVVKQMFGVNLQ

Compound	IC50 [1]	fold less potent than nirmatrelvir (EC50, cell-based HCoV 229E) [2]	further results
CC(C)(C)[C@H](NC(=O)C(F)(F)F)C(=O)N1C[C@H]2[C@@H]([C@H]1C(=O)NCCC1CCNC1=O)C2(C)C (stereo partly drawn) [Compound 1]	> 100 µM		
CC(C)(C)[C@H](NC(=O)C(F)(F)F)C(=O)N1C[C@H]2[C@@H]([C@H]1C(=O)N[C@@H](C[C@@H]1CCNC1=O)C(=O)COCc1ccccc1)C2(C)C [Compound 9]		approximately 2 fold	fold less potent than nirmatrelvir against HCoV 229E 3CL^pro (IC50) [1]: 3 fold
CC(C)(C)[C@H](NC(=O)C(F)(F)F)C(=O)N1C[C@H]2[C@@H]([C@H]1C(=O)N[C@H](C=O)C[C@@H]1CCNC1=O)C2(C)C [Compound 2]		~4 fold	fold inhibitory activity improvement for HCoV 229E 3CL^pro compared to nirmatrelvir ([1]; IC50 ratio vs nirmatrelvir): 9 fold
CCOC(=O)/C=C/[C@H](C[C@@H]1CCNC1=O)NC(=O)[C@@H](CC(=O)[C@@H](NC(=O)c1cc(C)on1)C(C)C)Cc1ccc(F)cc1 [rupintrivir]			efficacy against rhinovirus infection in phase 2 clinical trials [3]: lack of efficacy
CC(C)(C)[C@H](NC(=O)C(F)(F)F)C(=O)N1C[C@H]2[C@@H]([C@H]1C(=O)N[C@@H](C[C@@H]1CCNC1=O)C(N)=O)C2(C)C [Compound 4]	> 100 µM		
CC(C)(C)[C@H](NC(=O)C(F)(F)F)C(=O)N1C[C@H]2[C@@H]([C@H]1C(=O)N[C@@H](C[C@@H]1CCNC1=O)C(=O)C(=O)NC1CC1)C2(C)C [Compound 8]		11 fold	fold improvement / more potent than nirmatrelvir (IC50, SARS-CoV-2 and HCoV 229E 3CL^pro) [4]: approximately 2 fold
CC(C)(C)[C@H](NC(=O)C(F)(F)F)C(=O)N1C[C@H]2[C@@H]([C@H]1C(=O)N[C@H](CO)C[C@@H]1CCNC1=O)C2(C)C [Compound 3]	> 100 µM		
CC(C)(C)[C@H](NC(=O)C(F)(F)F)C(=O)N1C[C@H]2[C@@H]([C@H]1C(=O)N[C@H](C#N)C[C@@H]1CCNC1=O)C2(C)C [Nirmatrelvir]			EC50 [5]: 0.075 µM
COC(=O)[C@H](C[C@@H]1CCNC1=O)NC(=O)[C@@H]1[C@@H]2[C@H](CN1C(=O)[C@@H](NC(=O)C(F)(F)F)C(C)(C)C)C2(C)C [Compound 6]	> 100 µM		
